Patent US11207419B2, “Cadherin-17 specific antibodies and cytotoxic cells for cancer treatment” (ARBELE LIMITED, priority 2016, dated 2021)

What was measured:
[1] = test system: luciferase-labelled 97L orthotopic liver tumors; experiment: Orthotopic tumor xenograft model, tumor growth by live imaging; format: in vivo, nude mice; details: net photon count relative to IgG control 3 weeks after treatment; 6 mg/kg Lic5, 1 mg/kg drug, intraperitoneal 3 times/week for 3 weeks
Description: Animals were housed in individually ventilated cages under a 12-hour light/12-hour dark cycle and with free access to autoclaved water and chow. […] To allow in vivo viewing of the growing orthotopic liver tumors, previously established luciferase-labelled 97L cell line was used. 5×10^6 luciferase-labeled 97L cells were injected subcutaneously into nude mice to allow the growth of the subcutaneous tumors. These subcutaneous tumors were harvested when their sizes reached 200-300 mm3 and used as tumor seeds to establish orthotopic liver tumors in a separate group of nude mice following the standard procedure. […] Every week after treatment, orthotopic tumor growth and metastasis were monitored by live imaging in an IVIS 100 In Vivo Imaging System (Perkin Elmer, Waltham, Mass., USA) after intraperitoneal injection of 150 mg/kg potassium luciferin (Gold Biotechnology, St Louis, Mo., USA). For each measurement, a net photon count was obtained for each tumor. At the end of the experiment, orthotopic tumors were collected and subjected to formalin fixation and paraffin embedding.
The data shown are net photon count relative to the control IgG group obtained 3 weeks after treatment. […] Bars represent mean+SEM.

MHCC97-L (97L) cells = experiment: In vitro cell proliferation MTT assay, 97L cells; format: cell-based, human; details: cultured 97L cells; for growth inhibition: treatment for 2 days, MTT
Description: (§1) A pre-determined number of 97L and PLC cells was seeded onto 96-well culture plates for 1 day. 150 ug/ml mouse IgG (Sigma-Aldrich, St Louis, Mo., USA) as a control for Lic5. After treatment, the proliferation of treated cells was measured using Cell Proliferation Kit I (Roche, Indianapolis, Ind., USA) and as described. In brief, MTT reagent was incubated with the treated cells for 4 hours. Colorimetric signals were then measured after addition of 10% SDS. Independent cell proliferation MTT assays were performed at least twice for result confirmation.
(§2) Before treating orthotopic tumor-bearing mice with the purified Lic5, the anti-tumor effect of Lic5 alone or combined with cisplatin or epirubicin in cultured HCC cell lines in vitro was examined using cell proliferation MTT assay (FIG. 31(A)).

[2] = test system: 97L orthotopic liver tumors; experiment: Animal survival study, orthotopic liver tumors; format: in vivo, nude mice; details: for animal survival rate: 8 mg/kg Lic5, 1 mg/kg epirubicin, intraperitoneal 3 times/week for 3 weeks, monitored till 6 weeks after treatment
Description: Orthotopic liver tumors were established as above using 97L cells. Orthotopic tumor-bearing mice received the following treatments intraperitoneally 3 times/week for 3 weeks (11-15 mice in each group): (1) 8 mg/kg Lic5; (2) 1 mg/kg cisplatin; (3) 1 mg/kg epirubicin; (4) combined treatment of Lic5 and cisplatin; (5) combined treatment of Lic5 and epirubicin; (6) 8 mg/kg mouse IgG as Lic5 control. Animal survival was continuously monitored till 6 weeks after treatment.
Statistical analyses were performed using SPSS version 19 (SPSS Inc., Chicago, Ill., USA). Data presented in bar chart are expressed as mean ±SD/SEM. Student's t-test was used to calculate the significance of the difference between treatment groups and control group in both cell proliferation MTT assay and animal tumor xenograft experiments. Kaplan-Meier method was employed for survival analyses, while the differences in survival were calculated using log-rank test. A p-value of less than 0.05 was considered statistically significant.

PLC/PRF/5 (PLC) cells = experiment: In vitro cell proliferation MTT assay, PLC cells; format: cell-based, human; details: for growth inhibition: cultured PLC cells, treatment for 2 days, MTT
Description: as §1, §2

GPC3 = biological target: T1, GPC3 (Homo sapiens, UniProt P51654); details: phase I study; cited from earlier work
T1 construct: host or cells: HCC patients

[3] = test system: tumor cells of HCC and GC; experiment: Binding of mAbs to tumor cells; format: cell-based
Description: Tumor antigens derived from clinical samples were selected for the antibodies with specificity directed against the tumor-restricted CDH17 epitopes. […] By lowering and/or varying the antibody affinity (through computational modeling), CDH17-CAR-T cells will have enhanced differential binding to the tumor cell surface.

[4] = test system: Oum1 human gastric cancer cells; experiment: Internalization by confocal microscopy; format: cell-based; details: Lic5-FITC, over 30 mins at 37° C.
Description: (§3) FIG. 18 presents photographs showing the internalization of Lic5 into human gastric cancer cells as candidate for antibody drug conjugate; (a) photographs showing the staining of DAPI (blue) and Lic5-FITC (green) at indicated times; (b) photographs showing the merged staining of DAPI (blue) and Lic5-FITC (green) at indicated times; Lic5-FITC (green) internalization in Oum1 human gastric cancer cells over 30 mins at 37° C. was determined by confocal microscopy; nucleus was stained with DAPI.
as §3, with “In another aspect, the” for “FIG. 18 presents photographs showing the”, “cells is indicative of a” for “cells as”, “drug conjugate as shown in FIG. 18;” for “drug conjugate;”

CDH17 = biological target: T2, CDH17 (Homo sapiens, UniProt Q12864); experiment: Immunoreactivity by western blot and immunohistochemistry; format: binding; details: western blot on 97L cell lysate, immunohistochemistry on human HCC tissue
T2 construct: A single band of about 120 kDa corresponding to the apparent molecular weight of CDH17 was detected in CDH17-expressing 97L cells; endogenous in cells; host or cells: 97L cell lysate (western blot); paraffin-embedded human HCC tissue (immunohistochemistry)
Description: An in-house hybridoma cell line secreting Lic5 was generated as described. Hybridoma cells were maintained in DMEM supplemented with 10% FBS and 100 units/ml penicillin and streptomycin. To collect Lic5, hybridoma cells were cultured in serum-free hybridoma-SFM (Life Technologies) for 6 days. The cultured supernatant was collected and purified using Protein G column (Life Technologies). The concentration of the purified Lic5 was estimated using RC DC Protein Assay (Bio-Rad, Hercules, Calif., USA). The purity of Lic5 was assessed by sodium dodecyl sulfate-polyacrylamide gel electrophoresis (SDS-PAGE) under reducing condition, followed by Coomassie Blue staining. Immunoreactivity and specificity of Lic5 were confirmed by western blot using 97L cell lysate and by immunohistochemistry using paraffin-embedded human HCC tissue. […]
Immunohistochemistry was performed on paraffin-embedded orthotopic tumor xenografts and human HCC specimen as described. […] Signals were detected using EnVision+System-HRP Labelled Polymer Anti-mouse (Dako, Carpinteria, Calif., USA) and visualized using Liquid DAB+Substrate Chromogen System (Dako). […]
A single band of about 120 kDa corresponding to the apparent molecular weight of CDH17 was detected in CDH17-expressing 97L cells when Lic5 was used as a primary antibody for western blot (FIG. 30(B)). […]

[5] = 2 days, compared to mouse IgG-treated cells

Molecule: N.N.[Cl][Pt][Cl] [cisplatin]
- xenograft growth inhibition [1]: 48.6%
- growth inhibition (MHCC97-L (97L) cells): 31.6%
- difference in survival compared to control group ([2]; log-rank test versus mouse IgG control): did not reach any statistically significant values
- growth inhibition (PLC/PRF/5 (PLC) cells): 37.6%

Molecule: COc1cccc2c1C(=O)c1c(O)c3c(c(O)c1C2=O)C[C@@](O)(C(=O)CO)C[C@@H]3O[C@H]1C[C@H](N)[C@@H](O)[C@H](C)O1 [epirubicin]
- xenograft growth inhibition [1]: 37.9%
- growth inhibition (MHCC97-L (97L) cells): 21.9%
- animal survival rate [2]: 25%
- growth inhibition (PLC/PRF/5 (PLC) cells): 8.1%

Molecule: GC33: anti-GPC3 mAb developed by Chugai
- clinical response (GPC3): no partial or complete response

B1: Lic5: in-house mouse monoclonal antibody against CDH17, from hybridoma; VL SEQ ID NO. 29, VH SEQ ID NO. 30 (antibody, V domains shown)
VH: EVQLEESGGGLVKPGGSLKLPCAASGSSFSDFYMYWVRQTPEKRLEWVASISFDGTYTYYTDRVKGRFTISRDNAKNNLYLQMSSLKSEDTAMYYCARDRPAWFPYWGQGTLVTVSAA
VL: DIVLTQTTLSLNVSLGDQASISCRSSQSIVHSNGNTYLEWYLQRPGQSPKLLIYKVSNRFSGVPDRFSGSGSGTDFTLKISRVEAEDLGVYYCFQGSHVPLTFGAGTKLELKRA
notes: in-house mouse monoclonal antibody against CDH17, from hybridoma; 30
- binding to tumor cells [3]: bind tumor cells of HCC and GC only
- growth of cultured cells, single treatment (MHCC97-L (97L) cells; [5]): inhibited the growth
- internalization into cells [4]: internalization
- immunoreactivity against CDH17 (CDH17): high immunoreactivity against CDH17
- animal survival rate [2]: 63.6%
- growth of cultured cells, single treatment (PLC/PRF/5 (PLC) cells; [5]): inhibited the growth

B2: Lic3: mouse monoclonal antibody against CDH17, produced using recombinant ectodomain 1-2 of CDH17 as immunogen (antibody, V domains shown)
VH: EVQLVESGGGLVKPGGSLKLSCAASGFSFSDYYMYWVRQAPEKRLEWVASISFDGTYTYYTDRVKGRFTISRDNAKNNLYLQMSSLKSEDTAMYYCARDRPAWFPYWGQGTLVTVSA
VL: DVLMTQIPLSLTVSLGDQASISCRSSQSIVHSNGNTYLEWYLQRPGQSPKLLIYKVSNRFSGVPDRFSGSGSGTDFTLKISRVEAEDLGVYYCFQGSHVPLTFGAGTKLELK
modifications: Lic3 VH; Lic3 VL
notes: mouse monoclonal antibody against CDH17, produced using recombinant ectodomain 1-2 of CDH17 as immunogen
- binding to tumor cells [3]: bind tumor cells of HCC and GC only
